Measurements taken from patent US9399649B2, “Compounds for treating spinal muscular atrophy” (PTC Therapeutics Inc., priority 2012, dated 2016).

Key:
[1] = Body weight of neonatal Δ7 SMA mice; assay type: in vivo; details: neonatal SMA Δ7 homozygous knockout mice, IP QD PND 3 to PND 23, then orally BID from PND 24 until study end, FIG. 13
Procedure: The change in body weight of neonatal SMA mice is used to determine whether treatment with a test compound improves body weight.
SMA Δ7 homozygous knockout mice are dosed intraperitoneally (IP) with test compound or vehicle (100% DMSO) QD from PND 3 until the dose regimen is switched to an oral dose BID in 0.5% hydroxypropylmethyl cellulose (HPMC) with 0.1% Tween-80 at a dose 3.16-fold higher than the dose used for IP. Body weights of SMA Δ7 mice treated with test compound or vehicle and age matched heterozygous mice are recorded every day.

[2] = test system: full length and Δ7 SMN2 mRNA; experiment: Endogenous SMN2 mRNA RT-qPCR splicing assay in cultured cells; assay type: cell-based, human; details: Type 1 SMA patient fibroblasts (GM03813), increasing concentrations, 24 hr, FIG. 4
Procedure: The reverse transcription-quantitative PCR-based (RT-qPCR) assay is used to quantify the levels of the full length and Δ7 SMN2 mRNA in primary cells and cell lines containing the SMN2 gene treated with a test compound.
GM03813 SMA patient cells (5,000 cells/well) are seeded in 200 μL, of cell culture medium (DMEM plus 10% FBS) in 96-well flat-bottom plates and the plate is immediately swirled to ensure proper dispersal of cells, forming an even monolayer of cells. Cells are allowed to attach for at least 4-6 hrs. Test compounds are serially diluted 3.16-fold in 100% DMSO to generate a 7-point concentration curve. A solution of test compound (1 μL, 200× in DMSO) is added to each test well and 1 μL, DMSO is added to each control well. The plate is incubated for 24 hrs in a cell culture incubator (37° C., 5% CO2, 100% relative humidity). The cells are then lysed in Cells-To-Ct lysis buffer and the lysate is stored at 80° C.
SMN2-specific spliced products and GAPDH mRNA are identified using the following primers and probes in Table 5. Primer SMN FL Forward B (SEQ ID NO. 7) hybridizes to a nucleotide sequence in exon 7 (nucleotide 32 to nucleotide 54) and exon 8 (nucleotide 1 to nucleotide 4), primer SMN Δ7 Forward B (SEQ ID NO. 8) hybridizes to a nucleotide sequence in exon 6 (nucleotide 87 to nucleotide 111) and exon 8 (nucleotide 1 to nucleotide 3), primer SMN Reverse B (SEQ ID NO. 9) hybridizes to a nucleotide sequence in exon 8 (nucleotide 39 to nucleotide 62), probe SMN Probe B (SEQ ID NO. 10) hybridizes to a nucleotide sequence in exon 8 (nucleotide 7 to nucleotide 36). These primers and probe hybridize to nucleotide sequences common to human SMN1 and SMN2 mRNA. Since the SMA patient cells used in Example 3 contain only the SMN2 gene, RT-qPCR can quantify only SMN2 full-length and Δ7 mRNA.
The SMN forward and reverse primers are used at final concentrations of 0.4 μM. The SMN probe is used at a final concentration of 0.15 μM. GAPDH primers are used at final concentrations of 0.1 μM and the probe at 0.075 μM. The One-Step RT-PCR kit was used as the Real-Time PCR Mix. […]
The increase of SMN2 FL and decrease in SMN2 Δ7 mRNA relative to those in cells treated with vehicle control are determined from real-time PCR data using a modified ΔΔCt method (as described in Livak and Schmittgen, Methods, 2001, 25:402-8). The amplification efficiency (E) is calculated from the slope of the amplification curve for SMN2 FL, SMN2 Δ7, and GAPDH individually. The abundances of SMN2 FL, SMN2 Δ7, and GAPDH are then calculated as (1+E)^−Ct, where Ct is the threshold value for each amplicon. […]

Cc1cn2cc(-c3cc4ccc(N5CCN(C)CC5)cc4c(=O)o3)nc2c(C)n1 [Cpd 65, 3-(6,8-dimethylimidazo[1,2-a]pyrazin-2-yl)-7-(4-methylpiperazin-1-yl)-1H-isochromen-1-one]
body weight [1]: improved compared to vehicle treated mice
SMN2 FL mRNA relative to vehicle [2]: progressively more SMN2 FL mRNA
SMN2 Δ7 mRNA relative to vehicle [2]: less SMN2 Δ7 mRNA

Cc1cn2cc(-c3cc4ccc(N5CCN6CCC[C@H]6C5)cc4c(=O)o3)nc2c(C)n1 [Cpd 69, 3-(6,8-dimethylimidazo[1,2-a]pyrazin-2-yl)-7-[(8aS)-hexahydropyrrolo[1,2-a]pyrazin-2(1H)-yl]-1H-isochromen-1-one]
body weight [1]: improved compared to vehicle treated mice
SMN2 FL mRNA relative to vehicle [2]: progressively more SMN2 FL mRNA
SMN2 Δ7 mRNA relative to vehicle [2]: less SMN2 Δ7 mRNA
